Experimental data reported in the supplement of paper PMC11061612.

Experiments:
Test in all cases: Bliss excess, mean over the matrix (fraction); higher = more synergy
[1] = system: ATN-1 (T-Lymphoblastic Leukemia)
In short: (§1)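 Cell lines in DMEM/F12 or RPMI with 10% FBS were plated in 1536-well plates, held 24 hours at 37°C, 5% CO2, then given two-drug dose matrices for 72 hours (DMSO typically 0.2%). Viability was read by CellTiter-Glo 2.0 luminescence and scaled as inhibition from 0 (vehicle wells) to 1 (blank wells). Combination Emax is the second-highest inhibition in the matrix; Bliss excess is observed combination effect minus expected EA + EB − EA·EB, EA and EB being single-agent effects.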

[2] = system: BC-1 (B-Cell Non-Hodgkin's Lymphoma)
In short: as §1

[3] = system: BT-474 (Breast Carcinoma)
In short: as §1

DK-MG (Glioblastoma) = system: DK-MG (Glioblastoma)
In short: as §1

GCIY (Gastric Carcinoma) = system: GCIY (Gastric Carcinoma)
In short: as §1

[4] = system: HT-1197 (Bladder Carcinoma)
In short: as §1

[5] = system: HT-3 (Cervical Carcinoma)
In short: as §1

[6] = system: IGROV-1 (Ovarian Carcinoma)
In short: as §1

[7] = system: KNS-62 (Squamous Cell Lung Carcinoma)
In short: as §1

[8] = system: MDA-MB-175-VII (Breast Carcinoma)
In short: as §1

MG-63 (Osteosarcoma) = system: MG-63 (Osteosarcoma)
In short: as §1

[9] = system: NCI-H1975 (Lung Adenocarcinoma)
In short: as §1

[10] = system: NCI-H2170 (Squamous Cell Lung Carcinoma)
In short: as §1

[11] = system: NTERA-2-cl-D1 (Other Solid Carcinomas)
In short: as §1

[12] = system: OCI-M1 (Acute Myeloid Leukemia)
In short: as §1

[13] = system: SBC-5 (Small Cell Lung Carcinoma)
In short: as §1

[14] = system: SCC90 (Head and Neck Carcinoma)
In short: as §1

[15] = system: SUP-HD1 (Hodgkin's Lymphoma)
In short: as §1

[16] = system: SW1463 (Colorectal Carcinoma)
In short: as §1

[17] = system: TK (B-Cell Non-Hodgkin's Lymphoma)
In short: as §1

SMILES	Bliss excess [1]	Bliss excess [2]	Bliss excess [3]	Bliss excess (DK-MG (Glioblastoma))	Bliss excess (GCIY (Gastric Carcinoma))	Bliss excess [4]	Bliss excess [5]	Bliss excess [6]	Bliss excess [7]	Bliss excess [8]	Bliss excess (MG-63 (Osteosarcoma))	Bliss excess [9]	Bliss excess [10]	Bliss excess [11]	Bliss excess [12]	Bliss excess [13]	Bliss excess [14]	Bliss excess [15]	Bliss excess [16]	Bliss excess [17]
CN(CCO)CC[C@H](CSc1ccccc1)Nc1ccc(S(=O)(=O)NC(=O)c2ccc(N3CCC([C@@H](O)c4ccccc4-c4ccc(Cl)cc4)CC3)cc2)cc1S(=O)(=O)C(F)(F)F [AZD4320] + CN(C)CCCOc1ccc(-c2ccc3ncc4c(c3c2)n(C2CCOCC2)c(=O)n4C)cn1 [AZD0156] (first compound max 1 µM, 7x7, partner max 1 µM)	-0.0231	-0.0228	-0.057	-0.0539	0.0237	-0.0506	-0.0251	-0.0848	-0.0566	-0.0322	-0.0816	-0.0414	-0.0054	-0.0692	-0.0094	-0.0481	0.0037	-0.0754	-0.06	0.0083
CN(CCO)CC[C@H](CSc1ccccc1)Nc1ccc(S(=O)(=O)NC(=O)c2ccc(N3CCC([C@@H](O)c4ccccc4-c4ccc(Cl)cc4)CC3)cc2)cc1S(=O)(=O)C(F)(F)F [AZD4320] + Cn1cnc2c(F)c(Nc3ccc(Br)cc3Cl)c(C(=O)NOCCO)cc21 [Selumetinib] (first compound max 1 µM, 7x7, partner max 3 µM)	-0.0611	0.0573	-0.002	0.0286	0.0199	0.0079	0.0308	0.0542	0.03	0.0188	-0.0179	0.0125	-0.0497	-0.0415	0.0503	0.0547	0.144	0.0036	0.0106	-0.032
COc1nnc2ccc(N3CCC(c4ccc(OCCN5CCN(C)C(=O)[C@H]5C)cc4)CC3)nn12 [AZD5153] + C=CCn1c(=O)c2cnc(Nc3ccc(N4CCN(C)CC4)cc3)nc2n1-c1cccc(C(C)(C)O)n1 [AZD1775] (first compound max 1 µM, partner max 1 µM)	-0.0494	-0.048	-0.0279	-0.0209	-0.0136	-0.0045	-0.0104	-0.0858	-0.0371	-0.0255	-0.0419	0.0251	0.06	0.0115	-0.0449	-0.015	-0.0282	-0.114	-0.101	-0.0554
COc1nnc2ccc(N3CCC(c4ccc(OCCN5CCN(C)C(=O)[C@H]5C)cc4)CC3)nn12 [AZD5153] + CC1(C)CCC(CN2CCN(c3ccc(C(=O)NS(=O)(=O)c4ccc(NCC5CCOCC5)c([N+](=O)[O-])c4)c(Oc4cnc5[nH]ccc5c4)c3)CC2)=C(c2ccc(Cl)cc2)C1 [Venetoclax] (first compound max 1 µM, 7x7, partner max 1 µM)	-0.0279	-0.0604	-0.078	-0.0766	-0.0592	-0.0708	-0.0644	-0.0416	-0.0381	0.0346	-0.0509	-0.0579	-0.0329	-0.0251	-0.062	-0.0579	0.0009	-0.0316	-0.058	0.0193
COc1nnc2ccc(N3CCC(c4ccc(OCCN5CCN(C)C(=O)[C@H]5C)cc4)CC3)nn12 [AZD5153] + CCN(CCO)CCCOc1ccc2c(Nc3cc(CC(=O)Nc4cccc(F)c4)[nH]n3)ncnc2c1 [AZD2811] (first compound max 1 µM, 7x7, partner max 1 µM)	-0.127	-0.0313	-0.0197	-0.13	-0.0388	-0.0034	-0.0644	-0.0574	-0.0382	0.0618	-0.037	-0.005	0.0103	-0.0385	0.06	-0.0286	-0.0547	-0.0586	-0.0452	0.0124
COc1nnc2ccc(N3CCC(c4ccc(OCCN5CCN(C)C(=O)[C@H]5C)cc4)CC3)nn12 [AZD5153] + C[C@@H]1COCCN1C2=NC(=NC(=C2)C3(CC3)[S@](=N)(=O)C)C4=C5C=CNC5=NC=C4 [AZD6738] (first compound max 1 µM, 7x7, partner max 10 µM)	0.0411	-0.0709	0.0788	-0.0073	0.0327	-0.0082	0.0769	0.0079	-0.018	0.0118	0.0223	-0.0013	0.0964	0.0005	-0.0165	-0.0151	0.0164	-0.0281	-0.074	0.0034
COc1nnc2ccc(N3CCC(c4ccc(OCCN5CCN(C)C(=O)[C@H]5C)cc4)CC3)nn12 [AZD5153] + Cc1c2c(nn1C)CSCc1cc(n(C)n1)CSc1cc(c3ccccc3c1)OCCCc1c(C(=O)O)n(C)c3c-2c(Cl)ccc13 [AZD5991] (first compound max 1 µM, 7x7, partner max 1 µM)	-0.0304	-0.0202	-0.0012	-0.0037	-0.0727	0.0698	0.0362	-0.0069	-0.0459	-0.0015	-0.0302	-0.0138	-0.0283	0.0698	-0.018	-0.0062	0.0814	-0.0414	-0.0631	-0.0019
COc1nnc2ccc(N3CCC(c4ccc(OCCN5CCN(C)C(=O)[C@H]5C)cc4)CC3)nn12 [AZD5153] + Cn1cnc2c(F)c(Nc3ccc(Br)cc3Cl)c(C(=O)NOCCO)cc21 [Selumetinib] (first compound max 1 µM, 7x7, partner max 10 µM)	0.0098	-0.036	-0.0245	-0.032	0.0023	0.108	0.0276	-0.0391	-0.0169	0.019	-0.0246	-0.0045	-0.0712	0.0236	0.0301	0.001	0.098	-0.0019	0.0243	-0.0524
Cc1c2c(nn1C)CSCc1cc(n(C)n1)CSc1cc(c3ccccc3c1)OCCCc1c(C(=O)O)n(C)c3c-2c(Cl)ccc13 [AZD5991] + C=CCn1c(=O)c2cnc(Nc3ccc(N4CCN(C)CC4)cc3)nc2n1-c1cccc(C(C)(C)O)n1 [AZD1775] (first compound max 1 µM, partner max 1 µM)	-0.0027	-0.0314	-0.0298	0.0168	0.0035	-0.0866	-0.0335	0.0847	0.0251	-0.0223	-0.0317	-0.0523	-0.0274	0.0383	0.0066	0.0501	-0.0001	-0.106	-0.0158	-0.0721
Cc1c2c(nn1C)CSCc1cc(n(C)n1)CSc1cc(c3ccccc3c1)OCCCc1c(C(=O)O)n(C)c3c-2c(Cl)ccc13 [AZD5991] + CC1(C)CCC(CN2CCN(c3ccc(C(=O)NS(=O)(=O)c4ccc(NCC5CCOCC5)c([N+](=O)[O-])c4)c(Oc4cnc5[nH]ccc5c4)c3)CC2)=C(c2ccc(Cl)cc2)C1 [Venetoclax] (first compound max 1 µM, 7x7, partner max 1 µM)	0.0429	0.0493	-0.0279	-0.0696	0.0076	-0.0257	0.0195	-0.0326	-0.0426	-0.0306	0.0034	-0.0053	-0.0333	0.0217	-0.0076	-0.0218	0.0246	0.0788	-0.0589	0.174
Cc1c2c(nn1C)CSCc1cc(n(C)n1)CSc1cc(c3ccccc3c1)OCCCc1c(C(=O)O)n(C)c3c-2c(Cl)ccc13 [AZD5991] + CCN(CCO)CCCOc1ccc2c(Nc3cc(CC(=O)Nc4cccc(F)c4)[nH]n3)ncnc2c1 [AZD2811] (first compound max 1 µM, 7x7, partner max 1 µM)	-0.0413	0.0403	0.0314	-0.0543	-0.0183	-0.0381	0.162	-0.0053	0.0156	0.0441	0.0186	0.0047	0.0348	0.0704	0.068	0.0523	0.081	0.0311	-0.0905	0.0228
Cc1c2c(nn1C)CSCc1cc(n(C)n1)CSc1cc(c3ccccc3c1)OCCCc1c(C(=O)O)n(C)c3c-2c(Cl)ccc13 [AZD5991] + C[C@@H]1COCCN1C2=NC(=NC(=C2)C3(CC3)[S@](=N)(=O)C)C4=C5C=CNC5=NC=C4 [AZD6738] (first compound max 1 µM, 7x7, partner max 10 µM)	0.0085	-0.0396	0.0367	0.046	-0.0184	-0.104	0.08	0.0449	0.0235	0.0187	0.0127	0.0671	0.0272	0.0936	0.0061	0.0509	0.0141	-0.0279	-0.023	0.0536
Cc1c2c(nn1C)CSCc1cc(n(C)n1)CSc1cc(c3ccccc3c1)OCCCc1c(C(=O)O)n(C)c3c-2c(Cl)ccc13 [AZD5991] + C[C@@H](Nc1cc(F)cc(F)c1)c1cc(C(=O)N(C)C)cc2c(=O)cc(N3CCOCC3)oc12 [AZD8186] (first compound max 1 µM, 7x7, partner max 3 µM)	-0.0131	-0.0042	-0.0099	0.0095	-0.0611	-0.0055	0.0217	-0.0611	-0.0449	-0.0006	-0.0213	-0.0203	0.0095	0.0081	-0.0343	0.0033	0.0186	-0.0414	-0.0398	-0.0143
Cc1c2c(nn1C)CSCc1cc(n(C)n1)CSc1cc(c3ccccc3c1)OCCCc1c(C(=O)O)n(C)c3c-2c(Cl)ccc13 [AZD5991] + Cc1cc2ncnn2cc1Nc1ncc2c(n1)n(C1CCOCC1)c(=O)n2C [AZD7648] (first compound max 1 µM, 7x7, partner max 10 µM)	-0.0513	0.0172	-0.0305	-0.101	-0.0242	-0.059	-0.0173	-0.103	0.0266	-0.0055	-0.0265	-0.104	-0.0144	-0.0697	-0.001	-0.0447	-0.029	-0.104	-0.015	-0.0046
